Source: US20180327354A1, “Unnatural Analogues of Calcitriol and Uses Thereof” (Vidasym, Inc., priority 2009, published 2018)
Entries after “also recorded” stand apart in the source; their conditions may differ. Where two headings read alike, the source gives them in different places.

What was measured:
CD14 = CD14 expression induction in HL-60 promyelocytic leukemia cells (real-time RT-PCR); format: cell-based; settings: Homo sapiens, HL-60 cells
Description: Some compounds were tested in HL-60 promyelocytic leukemia cells and a primary culture of human coronary artery smooth muscle cells (HCASMC) for CYP24A1 induction. It is well documented that CYP24A1 has a VDRE in its promoter region and is a specific target gene of VDR (Meyer et al., 2007, J Biol Chem 282: 22344-22352). […] Compounds also were tested in HCASMC for their effects in inducing VDR. To assess the suitability of a compound for modulating immune responses, compounds were tested in HL-60 for their effects in inducing CD14 expression. To assess the suitability of a compound for treating thrombosis, compounds also were tested in HCASMC for their effects in modulating thrombomodulin and thrombospondin-1.
Compounds are tested in human HL-60 promyelocytic leukemia cells to assess their potency in inducing the expression of CYP24A1 and CD14. HL-60 cells are cultured in IMDM supplemented with 20% heat-inactivated fetal bovine serum at 37° C. in a humidified 5% CO2-95% air atmosphere. Cells are plated into 6 well plates and treated with test agent for 24 h. Cells are lysed with the addition of 1 mL of Trizol and RNA prepared according to the manufacturer's protocol.
Real-time reverse transcription-PCR is performed with the forward and reverse PCR primers and 250 nM of the TAQMAN™ probe specifically designed for CYP24A1 or CD14. (A TAQMAN™ probe is comprised of a fluorophore covalently attached to the 5′-end of the oligonucleotide probe and a quencher at the 3′-end.) After the data acquisition, the CYP24A1 or CD14 mRNA expression level is normalized to the GAPDH mRNA level. FIGS. 2A and 2B show the results from a typical CYP24A1 (FIG. 2A) and CD14 (FIG. 2B) expression study.

normal mice = experiment: Hypercalcemic side effect profile and serum PTH in normal mice; format: in vivo, Male C57/BL mice; settings: for dose at which compound starts to raise serum Ca: i.p. dosing once daily for 3 consecutive days
Description: The normal mice model is a convenient and quick way to assess the hypercalcemic side effect profile of compounds. At the same time, data on serum PTH can be collected.
Male C57/BL mice at 18-20 g are dosed with the test agent at 100 al/mouse (concentrations as indicated) i.p. once daily for 3 consecutive days or at 10 ml/kg, p.o. gavage, once daily for 5 days. The animals were harvested 24 h after the last dose by anesthetization with ketamine/xylazine. Blood was collected from the aorta. Serum total calcium was measured using the QuantiChrom Calcium Assay kit and/or the Roche Hitachi 912 Chemistry Analyzer. Serum PTH was measured using a PTH Immunoassay. Vehicle control was 100 l/mouse of 5% EtOH/95% propylene glycol for i.p. dosing or 10 ml/kg of 20% Hydroxypropyl-β-Cyclodextrin for p.o. gavage dosing.
For serum chemistry data, group mean±SEM are presented. Differences between vehicle and compound-treated groups are assessed using a one-way ANOVA followed by a Dunnett's post-hoc test. FIGS. 3A and 3B show the results from a typical p.o. gavage dosing study (n=4-9 per group).

VDR = VDR expression induction in primary culture of human coronary artery smooth muscle cells; format: cell-based; settings: HCASMC
Description: Compounds were tested in a primary culture of HCASMC to assess their potency in inducing the expression of CYP24A1 and VDR.
Primary culture of HCASMC was grown in smooth muscle growth medium SmGM-2 containing 5.5 mM glucose, 5% FBS, 50 μg/ml gentamicin, 50 ng/ml amphotericin-B, 5 μg/ml insulin, 2 ng/ml hFGF, and 0.5 ng/ml hEGF at 37° C. in a humidified 5% CO2-95% air. Cells were grown to >80% confluence and used within five passages.
Cells were plated into 6 well plates and treated with test agent for 24 h. Cells were lysed with the addition of 1 mL of Trizol and RNA prepared according to the manufacturer's protocol.
Real-time reverse transcription-PCR was performed with the forward and reverse PCR primers and […] of the TAQMAN™ probe specifically designed for CYP24A1 or VDR. (A TAQMAN™ probe is comprised of a fluorophore covalently attached to the 5′-end of the oligonucleotide probe and a quencher at the 3′-end.) After the data acquisition, the CYP24A1 or VDR mRNA expression level was normalized to the GAPDH mRNA level. […] Group mean±STDEV (standard deviation) are presented.

[1] = test system: 5/6 nephrectomized uremic rats; experiment: Endothelial function (aortic ring relaxation) in 5/6 nephrectomized uremic rats; format: in vivo, Sprague Dawley rats; settings: 5/6 NX rats; for acetylcholine-induced endothelial-dependent aortic relaxation / sodium nitroprusside (SNP)-induced endothelial-independent relaxation: 2-week treatment, aortic rings precontracted with PE
Description: The experimental conditions using the 5/6 (subtotal) nephrectomized rats were as described above. Twenty-four hours after the last dose, the animals were sacrificed, and the aorta tissues were harvested for the determination of endothelial function.
Rats were anesthetized with pentobarbital sodium (i.p., 35 mg/kg). Thoracic aortas were excised in a cold modified Krebs solution (see below) and a 3 mm aortic ring was suspended in 10 mL tissue baths under 0.5 grams of resting tension in a modified Krebs solution containing (g/L): NaCl 6.9169, KCl 0.3499, NaHCO3 2.0998, MgSO4 0.2901, KH2 PO4 0.1604, CaCl2 0.2663, glucose 1.9994, EDTA 0.026, equilibrated with 5% CO2-95% 02 (pH 7.4 at 37° C.). Aortas were sensitized by the addition of phenylephrine (PE, 3 μM) with 10 min washouts between intervals. Aortas were precontracted with PE (3 μM), and the endothelium-dependent vasodilator acetylcholine (ACh) was added in half-log increments (10^−9 mol/L-10^−4.5 mol/L) at 3-5 min intervals, allowing time for the effect of ACh to plateau. After a 60 min washout, aortas were precontracted with PE (3 μM) and subsequently treated with endothelial-independent vasodilator sodium nitroprusside (SNP; 10^−9 mol/L-10^−6 mol/L) at 3-5 min intervals, allowing time for the effect to plateau. Data were recorded with the BL-420F Data Acquisition & Analysis System.
ACh and SNP-induced relaxation were calculated as the % relaxation of the PE-induced precontraction. Differences in vascular function were determined using a two-way ANOVA, followed by a Bonferonni post-hoc test. […] SNP serves as a source of nitric oxide and induces relaxation via an endothelial-independent pathway.

[2] = Maximal absorbance wavelength and extinction coefficient (spectrophotometer scan); format: physicochemical; settings: for maximal absorbance wavelength / extinction coefficient: 100 μM in 50:50 de-ionized water and ethanol; for extinction coefficient: in M-1·cm-1 (unit assumed)
Description: To determine the maximal absorbance wavelength (ODmax) and the extinction coefficients for the compounds, each compound is diluted in a 50:50 solution (by volume) of de-ionized water and ethanol at 100 μM and scanned by a spectrophotometer.

[3] = 24 h, mRNA normalized to GAPDH, Table 3 summary, some values average of 3 or more determinations, read-out: CD14 EC50
[4] = 24 h, Table 4 summary, some values average of 2 or more determinations, read-out: EC50 for VDR induction

For `CCC(O)(CC)CCO[C@H](C)C1CCC2/C(=C/C=C3C[C@@H](O)C4(CC4)[C@H](O)C3)CCCC21C` (stereo partly drawn) [Vida-10, (4R,8R)-6-((E)-2-((1S,7αS)-1-((R)-1-(3-ethyl-3-hydroxypentyloxy)ethyl)-7α-methyldihydro-1H-inden-4(2H,5H,6H,7H,7αH)-ylidene)ethylidene)spiro[2.5]octane-4,8-diol], the EC50 (CD14; [3]) was 0.4 nM, the “dose at which compound starts to raise serum Ca” value (normal mice) was 1 µg/kg and the EC50 (VDR; [4]) was 0.61 nM. For the same compound, the “acetylcholine-induced endothelial-dependent aortic relaxation” value [1] was “improves endothelial function; also recorded: dose-dependent improvement; also recorded: potent in improving endothelial function”, the “sodium nitroprusside (SNP)-induced endothelial-independent relaxation” value (“sodium nitroprusside” for short) [1] was “no significant effect” and the acetylcholine-induced endothelial-dependent relaxation ([1]; treatment with 0.16 and 0.64 μg/kg) was “back to the Sham level”. The maximal absorbance wavelength [2] was 253 nm and the extinction coefficient [2] was 46990.
With `C=C1[C@H](O)CC(=C/C=C2\CCCC3(C)C2CCC3[C@@H](C)OCCC(O)(CC)CC)C[C@H]1O` (stereo partly drawn) [Vida-11, (1R,3R)-5-((E)-2-((1S,3αS,7αS)-1-((R)-1-(3-ethyl-3-hydroxypentyloxy)ethyl)-7α-methyldihydro-1H-inden-4(2H, 5H, 6H, 7H, 7αH)-ylidene)ethylidene)-2-methylenecyclohexane-1,3-diol] the EC50 (CD14; [3]) was 0.9 nM, the “dose at which compound starts to raise serum Ca” value (normal mice) was 0.1 µg/kg and the EC50 (VDR; [4]) was 1.4 nM. For the same compound, the “acetylcholine-induced endothelial-dependent aortic relaxation” value [1] was “improves; also recorded: dose-dependent improvement; also recorded: potent in improving endothelial function”, the “sodium nitroprusside” value [1] was “no significant effect” and the maximal absorbance wavelength [2] was 254 nm. The extinction coefficient [2] was 60100.
For `C=C1[C@H](O)CC(=C/C=C2\CCCC3(C)C2CCC3[C@@H](C)OC[C@H](C)C(C)(C)O)C[C@H]1O` (stereo partly drawn) [Vida-5, (1R,3R)-5-((E)-2-((3αS,7αS)-1-((R)-1-((S)-3-hydroxy-2,3-dimethylbutoxy)ethyl)-7α-methyldihydro-1H-inden-4(2H,5H,6H, 7H, 7αH)-ylidene)ethylidene)-2-methylenecyclohexane-1,3-diol], the EC50 (CD14; [3]) was 3.7 nM, the EC50 (CD14; typical study, FIG. 2B, read-out: EC50 for inducing CD14 expression) was 4.1 nM and the “dose at which compound starts to raise serum Ca” value (normal mice) was 1 µg/kg. The “dose at which compound starts to raise serum calcium” value (normal mice; p.o. gavage once daily for 5 days, FIG. 3A) was 5 µg/kg, the “dose at which compound starts to suppress PTH” value (normal mice; p.o. gavage once daily for 5 days, FIG. 3B) was 0.05 µg/kg and the EC50 (VDR; [4]) was 3.2 nM. For the same compound, the EC50 (VDR; typical study, FIG. 5B, read-out: EC50 for inducing VDR expression) was 1.3 nM, the “acetylcholine-induced endothelial-dependent aortic relaxation” value [1] was “improves; also recorded: dose-dependent improvement; also recorded: potent in improving endothelial function” and the “sodium nitroprusside” value [1] was “no significant effect”. The maximal absorbance wavelength [2] was 253 nm, the extinction coefficient [2] was 48360 and the “maximal absorbance wavelength (ODmax)” value ([2]; FIG. 1, typical absorbance profile) was 253 nm.
